Data on three substances can be found in patent US9606114B2, “Multivalent chelators containing a scaffold structure for modifying and organizing of target molecules” (JOHANN WOLFGANG GOETHE-UNIVERSITAT FRANKFURT AM MAIN, priority 2004, dated 2017).

Data set [1] has as its target T1, ifnar2-H10 (Homo sapiens, UniProt P48551).
T1 construct: the extracellular domain of ifnar2 with a C-terminal deca-histidine-tag (ifnar2-H10)
T1 sequence (P48551 with tags, fused parts or gaps): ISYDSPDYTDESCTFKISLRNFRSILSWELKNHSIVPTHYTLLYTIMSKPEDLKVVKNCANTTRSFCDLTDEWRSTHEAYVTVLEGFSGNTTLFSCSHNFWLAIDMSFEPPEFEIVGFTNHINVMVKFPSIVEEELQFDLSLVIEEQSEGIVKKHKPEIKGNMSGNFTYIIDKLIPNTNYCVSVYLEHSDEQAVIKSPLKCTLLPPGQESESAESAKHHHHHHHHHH
Briefly: Fluorescence quantum yield of MCH-fluorophore conjugate after Ni(II) loading and protein binding. The data set is classed as physicochemical. As for the experimental part: (§1) For a non-covalent fluorescence labeling of histidine-tagged proteins in solution conjugates of tris-NTA with three different fluorophores were synthesized: Oregon Green 488, ATTO 565, FEW-S0387 (FIG. 17).
(§2) After loading with Ni(II)-ions ifnar2-H10 was added to these conjugates and the excess conjugate was separated through gel filtration.
(§3) The different states of the MCH-fluorophore-conjugate could be followed by fluorescence quantum yield. (FIG. 18B). After loading of the chelator-groups with Ni(II)-ions a marked reduction of the fluorescence to about 50% was observed, and after binding to the protein to about 40%.

Data set [2] concerns ifnar2-H10. The description is as above. The data set is classed as physicochemical. The settings on record: relative to unloaded conjugate. As for the experimental part:
as §1, §2, §3

The target of data set [3] is T1, ifnar2-H10. Briefly: Lateral diffusion of protein anchored via bis-NTA lipid to solid-supported lipid double layer (FRAP). To be noted: membrane-anchored via bis-NTA lipid in stearoyl-oleoyl-phosphatidylcholine double layer. From the text: For an attachment of proteins to lipid membranes, a lipid-analogue conjugate of bis-NTA was synthesized that is shown in FIG. 15A.
This lipid was incorporated into unilaminar vesicles of stearoyl-oleoyl-phosphatidylcholine that spontaneously form a fluid solid-supported lipid-double layer on glass surfaces (FIG. 15B). ifnar2-H10 could be specifically anchored at these membranes, whereby the binding activity was completely preserved (FIG. 15B). The lateral diffusion of the membrane-anchored ifnar2-H10 was analyzed through fluorescence-bleaching (fluorescence recovery after photobleaching, FRAP) (FIG. 16). Thereby, a diffusion constant of 1 μm^2/s was determined.

The target in data set [4] is T1, ifnar2-H10. The experiment in a line: Immobilization of histidine-tagged protein on chelator-modified surface, detected by RIfS. The data set is classed as binding. To be noted: immobilized on tris-NTA modified surface. The source says: The interaction of histidine-tagged proteins with the surfaces as produced in example 1 was characterized in detail by means of reflectometric interference spectroscopy (RIfS). Using this method, the binding of proteins to surfaces can be quantified in real time, as described in Piehler and Schreiber 2001 (Piehler J, Schreiber G. 2001. Fast transient cytokine-receptor interactions monitored in real time by reflectometric interference spectroscopy. Anal. Biochem. 289(2):173-186.)
The immobilization of the extracellular domain of ifnar2 with a C-terminal deca-histidine-tag (ifnar2-H10) to a tris-NTA modified surface (FIG. 7A) is shown in FIG. 7B. Whereas no binding was detectable before loading of the chelator coupled to the surface with Ni(II)-ions, thereafter an overall binding of about 1.5 ng/mm^2 protein was observed that also maintained stably immobilized during rinsing. Nevertheless, this protein could be removed quantitatively with 200 mM imidazole as competitor.
The functionality of the immobilized protein was examined through the binding of the ligand interferon α2 (IFNα2) (FIG. 8).

As to ATTO 565-Tris-NTA, at ifnar2-H10 [1] (Ni(II) loading and protein binding), the “reduction of fluorescence compared with Oregon Green conjugate” value is “even more pronounced”.

On to OG 488-Tris-NTA [tris-NTA-Oregon Green], for which, on ifnar2-H10 [1] (Ni(II)-loaded conjugate bound to ifnar2-H10), the “fluorescence after binding to the protein” value was “about 40%”. Also, in the data set on ifnar2-H10 [2], the “fluorescence after loading of the chelator-groups with Ni(II)-ions” value was “about 50%”. “ifnar2-H10: extracellular domain of ifnar2 (type I interferon-receptor 2) with a C-terminal deca-histidine-tag” returned a diffusion constant in the data set with ifnar2-H10 [3] of 1 μm^2/s. In the data set with ifnar2-H10 [4], the “immobilized ifnar2-H10 active (binding of ligand IFNα2)” value is “more than 90%”.
